Results taken from patent US10988465B2, “CXCR4 inhibitors and uses thereof” (X4 Pharmaceuticals, Inc., priority 2016, dated 2021).

How the values were obtained:
[1] = in vitro; conditions: human, Caco-2, pH 7.4
Description: Example 37: Caco-2 Permeability Assay
The goal of this assay was to evaluate the intestinal absorption potential of drug candidates using Caco-2 cell lines.
HBSS buffer with 0.3% DMSO and 5 μM LY: add 150 μL DMSO and 50 μL LY (5 mM) into 50 ml HBSS buffer (pH 7.4).
HBSS buffer with 0.1% DMSO and 5 μM LY: add 50 μL DMSO and 50 μL LY (5 mM) into 50 mL HBSS buffer (pH 7.4).
HBSS buffer with 0.3% DMSO: add 150 μL DMSO into 50 ml HBSS buffer (pH 7.4).
HBSS buffer with 0.1% DMSO: add 50 μL DMSO into 50 ml HBSS buffer (pH 7.4).
Prepare HBSS buffer with 0.4% DMSO: add 200 μL DMSO into 50 ml HBSS buffer (pH 7.4).
Prepare HBSS buffer with 0.4% DMSO and 5 μM LY: add 200 μL DMSO and 50 μL LY (5 mM) into 50 ml HBSS buffer (pH 7.4).
4. Measure TEER Take cell culture plate out of incubator, wash the cell monolayers with HBSS buffer, and then measure TEER values at Rm temperature. 5. Centrifuge Centrifuge the compound solution (from step 3) at 4000 rpm for 5 min before loading to donor chambers. 6. Dosing Add solution based on the volumes listed in the following table (make sure to take extra 100 μL of donor sample for T0 as Backup).
7. Apical LYT0 samples To determine LY concentration in the apical chember, take 100 μL sample from apical chambers into an opaque plate for LYT0. 8. Prewarm Prewarm apical and basolateral plates at 37° C. for about 5 min, then begin transport by placing the apical plate onto basolateral plate. 9. Incubation Keep the plates in incubator at 37° C. for 90 min. 10. Standard Curve preparation
11. Transport termination Separate the apical plate from the basolateral plate after 90-min incubation.
Receiver sample: 60 μL of receiver sample+60 μL ACN with IS (Osalmid or Imipramine)
Study details: Test concentration 10 μM
Test systems: Caco-2/HBSS solution
Incubation conditions: 0, 90 min at 37° C.
Sample size: Duplicates (n=2)
Bioanalytical method: LC-MS/MS
For Millicell-24 Cell Culture Plates: surface area of the membrane=0.7 cm^2, VA=0.8 mL (A-to-B) or 0.4 mL (B-to-A)
1. Papp values were calculated based on calculated concentrations.
The compound numbers correspond to the compound numbers in Table 1.

[2] = target: T1, Jurkat cells expressing CXCR4 (Homo sapiens, UniProt P61073); assay: Chemokine (CXCL12-AF647) binding inhibition assay; conditions: CXCL12-AF647 25 ng/mL, read-out: IC50 CXCL-12 binding Jurkat
T1 construct: endogenous in cells; host or cells: Jurkat
T1 sequence (P61073 whole entry): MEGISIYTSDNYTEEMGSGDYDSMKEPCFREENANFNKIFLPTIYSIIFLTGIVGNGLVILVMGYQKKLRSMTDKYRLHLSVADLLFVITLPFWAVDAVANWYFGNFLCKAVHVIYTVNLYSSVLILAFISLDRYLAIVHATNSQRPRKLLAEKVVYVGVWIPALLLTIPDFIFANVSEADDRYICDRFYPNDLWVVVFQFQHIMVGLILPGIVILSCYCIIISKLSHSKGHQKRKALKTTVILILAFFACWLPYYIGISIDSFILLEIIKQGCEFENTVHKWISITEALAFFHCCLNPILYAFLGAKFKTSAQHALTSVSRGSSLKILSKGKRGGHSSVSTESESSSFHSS
Description: Chemokine (CXCL12-AF647) Binding Inhibition Assay
Jurkat cells expressing CXCR4 were washed once with assay buffer (Hanks' balanced salt solution with 20 mM HEPES buffer and 0.2% bovine serum albumin, pH 7.4) and then incubated for 15 min at room temperature with the test compounds diluted in assay buffer at dose-dependent concentrations. Subsequently, CXCL12-AF647 (25 ng/mL) was added to the compound-incubated cells. The cells were incubated for 30 min at room temperature. Thereafter, the cells were washed twice in assay buffer, fixed in 1% paraformaldehyde in PBS, and analyzed on the FL4 channel of a FACSCalibur flow cytometer equipped with a 635-nm red diode laser (Becton Dickinson, San Jose, Calif., USA).
The percentages of inhibition of CXCL12-AF647 binding were calculated according to the formula: [1−((MFI−MFINC)/(MFIPC−MFINC))]×100 where MFI is the mean fluorescence intensity of the cells incubated with CXCL12-AF647 in the presence of the inhibitor, MFINC is the mean fluorescence intensity measured in the negative control (i.e., autofluorescence of unlabeled cells), and MFIPC is the mean fluorescence intensity of the positive control (i.e., cells exposed to CXCL12-AF647 alone).

[3] = target: T2, CXCR-4 transfected U87 cell line (U87.CXCR4) (Homo sapiens, UniProt P61073); assay: Intracellular CXCL-12-induced calcium mobilization assay (FLIPR); type: cell-based; conditions: U87.CXCR4 cells; CXCL-12 25-50 ng/mL; compound added 15 min before; read-out: IC50 CXCL-12 Ca^2+ flux U87.CXCR4+
T2 construct: expressed in transfected cells; host or cells: U87 (U87.CXCR4)
T2 sequence (P61073 whole entry): as above
Description: Example 36: REGA Screening Assay
Intracellular CXCL-12-Induced Calcium Mobilization Assay
Intracellular calcium mobilization induced by chemokines or chemokine-derived peptides were evaluated using a calcium responsive fluorescent probe and a FLIPR system. The CXCR-4 transfected U87 cell line (U87.CXCR4) cells were seeded in gelatine-coated black-wall 96-well plates at 20,000 cells per well and incubated for 12 hours. Cells were then loaded with the fluorescent calcium probe Fluo-2 acetoxymethyl at 4 μM final concentration in assay buffer (Hanks' balanced salt solution with 20 mM HEPES buffer and 0.2% bovine serum albumin, pH 7.4) for 45 min at 37° C. The intracellular calcium mobilization induced by the CXCL-12 (25-50 ng/mL) was then measured at 37° C. by monitoring the fluorescence as a function of time in all the wells simultaneously using a fluorometric imaging plate reader (FLIPR Tetra, Molecular Devices).

| Papp A→B at 90 min, 10 μM [1] [×10⁻⁶ cm/s] | Papp B→A at 90 min, 10 μM [1] [×10⁻⁶ cm/s] | efflux ratio at 90 min, 10 μM [1] | IC50 [2] [nM] | IC50 [3] [nM] | Structure (SMILES) |
| --- | --- | --- | --- | --- | --- |
| 10 to 30 | 10 to 30 | 0.1 to 10 | ≥ 1000 | ≥ 1000 | Cc1cccnc1[C@@H]1CCC[C@H](c2nc3c(N4CCN(C)CC4)cccc3n2C)N1C [I-36] |
| 0.1 to 10 | 10 to 30 | 10 to 30 | 0.01 to 100 | ≥ 1000 | CNCCCCn1c([C@H]2CCC[C@@H](c3ncccc3C)N2C)nc2ccccc21 [I-37] |
| 0.1 to 10 | 10 to 30 | 0.1 to 10 | 0.01 to 100 | 100 to 1000 | Cc1cccnc1[C@@H]1CCC[C@H](c2nc3ccccc3n2CCCCN(C)C)N1C [I-38] |
| 10 to 30 | 10 to 30 | 0.1 to 10 | 100 to 1000 | ≥ 1000 | Cc1cccnc1[C@@H]1CCC[C@H](c2nc3ccccc3n2CCCCN2CCOCC2)N1C [I-39] |
| 0.1 to 10 | 10 to 30 | 0.1 to 10 | 100 to 1000 | ≥ 1000 | Cc1cccnc1[C@@H]1CCC[C@H](c2nc3ccccc3n2CCCCN2CCN(C)CC2)N1C [I-40] |
| 0.1 to 10 | 0.1 to 10 | 0.1 to 10 | 0.01 to 100 | ≥ 1000 | Cc1cccnc1[C@@H]1CCC[C@H](c2nc3ccccc3n2CCCCN2CCC(F)(F)CC2)N1C [I-41] |
| 0.1 to 10 | 10 to 30 | 0.1 to 10 | 0.01 to 100 | 0.01 to 100 | Cc1cccnc1[C@@H]1CCC[C@H](c2nc3cccc(OC4CCN(C)CC4)c3[nH]2)N1C [I-42] |
| 0.1 to 10 | 10 to 30 | 0.1 to 10 | 0.01 to 100 | 0.01 to 100 | CCN1CCC(Oc2cccc3nc([C@H]4CCC[C@@H](c5ncccc5C)N4C)[nH]c23)CC1 [I-43] |
| 0.1 to 10 | 10 to 30 | 0.1 to 10 | 0.01 to 100 | 0.01 to 100 | Cc1cccnc1[C@@H]1CCC[C@H](c2nc3cccc(OC4CCN(C(C)C)CC4)c3[nH]2)N1C [I-44] |
| 0.1 to 10 | 10 to 30 | 0.1 to 10 | 0.01 to 100 | 100 to 1000 | Cc1cccnc1[C@@H]1CCC[C@H](c2nc3c(Br)ccc(Br)c3n2CC2CCN(C)CC2)N1C [I-47] |
| 10 to 30 | 0.1 to 10 | 0.1 to 10 | 0.01 to 100 | 100 to 1000 | CC(C)c1cccnc1[C@@H]1CCC[C@H](c2nc3cccc(N4CCN(C)CC4)c3[nH]2)N1C [I-49] |
| 0.1 to 10 | 10 to 30 | 10 to 30 | 0.01 to 100 | 0.01 to 100 | Cc1cccnc1[C@@H]1CCC[C@H](c2nc3cccc(N4CCNC(C)C4)c3[nH]2)N1C (stereo partly shown) [I-50] |
| 0.1 to 10 | 10 to 30 | 0.1 to 10 | 0.01 to 100 | 0.01 to 100 | Cc1cccnc1[C@@H]1CCC[C@H](c2nc3cccc(N4C[C@@H](C)N[C@@H](C)C4)c3[nH]2)N1C [I-51] |
| 0.1 to 10 | 10 to 30 | 10 to 30 | 0.01 to 100 | 0.01 to 100 | Cc1cccnc1[C@@H]1CCC[C@H](c2nc3cccc(N4CCNC(C)(C)C4)c3[nH]2)N1C [I-52] |
| 10 to 30 | 10 to 30 | 0.1 to 10 | 0.01 to 100 | 0.01 to 100 | Cc1cccnc1[C@@H]1CCC[C@H](c2nc3cccc(N4CCN(C)C(C)C4)c3[nH]2)N1C (stereo partly shown) [I-53] |
| 10 to 30 | 10 to 30 | 0.1 to 10 | 0.01 to 100 | 0.01 to 100 | Cc1cccnc1[C@@H]1CCC[C@H](c2nc3cccc(N4C[C@@H](C)N(C)[C@@H](C)C4)c3[nH]2)N1C [I-54] |
| 10 to 30 | 10 to 30 | 0.1 to 10 | 0.01 to 100 | 0.01 to 100 | Cc1cccnc1[C@@H]1CCC[C@H](c2nc3cccc(N4CCN(C)C(C)(C)C4)c3[nH]2)N1C [I-55] |
| 0.1 to 10 | 10 to 30 | 0.1 to 10 | 0.01 to 100 | 0.01 to 100 | COc1cccnc1[C@@H]1CCC[C@H](c2nc3cccc(N4CCN(C)CC4)c3[nH]2)N1C [I-62] |
| 10 to 30 | 0.1 to 10 | 0.1 to 10 | 100 to 1000 | 0.01 to 100 | CN1CCN(c2cccc3nc([C@H]4CCC[C@@H](c5ncccc5OC(F)(F)F)N4C)[nH]c23)CC1 [I-63] |
| 10 to 30 | 10 to 30 | 0.1 to 10 | 100 to 1000 | 100 to 1000 | CN1CCN(c2cccc3nc([C@H]4CCC[C@@H](c5nccc6c5OCCO6)N4C)[nH]c23)CC1 [I-65] |
| 0.1 to 10 | 10 to 30 | 0.1 to 10 | 0.01 to 100 | 0.01 to 100 | Cc1cccnc1[C@@H]1CCC[C@H](c2nc3cccc(N4CCC(N(C)C)CC4)c3[nH]2)N1C [I-67] |
| 10 to 30 | 10 to 30 | 0.1 to 10 | 100 to 1000 | ≥ 1000 | Cc1ccnc([C@@H]2CCC[C@H](c3nc4cccc(N5CCN(C)CC5)c4[nH]3)N2C)c1 [I-71] |
| 10 to 30 | 10 to 30 | 0.1 to 10 | 100 to 1000 | ≥ 1000 | CN1CCN(c2cccc3nc([C@H]4CCC[C@@H](c5ncccc5OC5CC5)N4C)[nH]c23)CC1 [I-72] |
| 0.1 to 10 | 10 to 30 | > 30 | 0.01 to 100 | 100 to 1000 | Cc1cccnc1[C@@H]1CCC[C@H](c2nc3cccc(N4CCN(C)CC4=O)c3[nH]2)N1C [I-73] |
| 10 to 30 | 10 to 30 | 0.1 to 10 | 0.01 to 100 | 0.01 to 100 | CCN1CCN(c2cccc3nc([C@H]4CCC[C@@H](c5ncccc5C)N4C)[nH]c23)CC1 [I-74] |

| Structure (SMILES) | Papp A→B at 90 min, 10 μM [1] [×10⁻⁶ cm/s] | Papp B→A at 90 min, 10 μM [1] [×10⁻⁶ cm/s] | efflux ratio at 90 min, 10 μM [1] | IC50 [2] [nM] | IC50 [3] [nM] |
| --- | --- | --- | --- | --- | --- |
| Cc1cccnc1[C@@H]1CCC[C@H](c2nc3cccc(N4C5CCC4CN(C)C5)c3[nH]2)N1C [I-57] | 10 to 30 | 10 to 30 | 0.1 to 10 | 0.01 to 100 | 0.01 to 100 |
